Source: patent US20230406803A1, “TROPOLONE DERIVATIVES AND TAUTOMERS THEREOF FOR IRON REGULATION IN ANIMALS” (Kinesid Therapeutics, Inc, priority 2020, published 2023)

What was measured:
[1] = Ligand facilitated Fe(III) efflux from liposomes; assay type: biochemical; design: unit not given here; settings: efflux rate k at 10 μM ligand concentration; ferrozine absorbance 562 nm, 120 min kinetic read
Protocol: Assay 1: Ligand Facilitated Fe(III) Efflux from Liposomes
Preparation of POPC (1 palmitoyl-2-oleoyl-sn-glycero-3 phosphocholine): Cholesterol Liposomes
A 1M buffer solution of MES and Tris was prepared by dissolving 121.14 grams of Tris base and 213.25 grams of MES hydrate in 500 mL of MilliQ water and adjusted to pH7.0 using an […] HCl solution before bringing the total volume of the solution to 1 L. A 500 mM solution of FeCl3 was prepared by dissolving 0.811 grams of anhydrous FeCl3 in 10 mL of a 0.1M H2SO4 aqueous solution. Inside buffer is prepared in a 50 mL falcon tube, which was added with 25 mL of MilliQ water, 1.61 g of sodium citrate, 1.5 mL of the above FeCl3 solution, and 2.5 mL of the 1M MES/Tris HCl buffer (pH=7.0), and finally additional MilliQ H2O to bring to a 50 mL final volume.
Lipid solution is prepared by dissolving 206.9 mg of POPC (1-palmitoyl-2-oleoyl-sn-glycero-3-phosphocholine) and 8.6 mg of cholesterol in 10 mL of ethanol.
The lipids solution and the inside buffer solution are independently loaded into 10 mL luer lock syringes for loading into a virgin cartridge on a Precision Nanosystems NanoAssembler to prepare unilamaller liposomes with the following parameters: 7.5 mL total volume, 1.5:1 mixing ratio of inside buffer:lipids solution, 8 mL/min flow rate, ambient temperature, 0.35 mL start waste, and 0.05 mL of end waste. 7.5 mL of liposomes is harvested for purification on a 6-inch long, 1-inch diameter Sephadex G-50 column wetted in 600 mM sodium ascorbate and 50 mM MES/Tris HCl pH 7.0 buffer. This buffer also serves as the column running buffer. The crude liposome solution is carefully loaded with minimal volume of running buffer above the top of the Sphadex, allowed to enter the matrix, and the column is run with the continued addition of running buffer. The eluting liposomes, observed as a milky and turbid solution, are collected until free iron begins to elute (observed as a deep purple color) and the fractions are pooled for phosphorus quantitation.
Determination of Phosphorus Content:
Phosphorus content of eluted liposomes was determined by the process outlined below. 10 μL of liposome elution and a running buffer blank are added to a 5 mL glass vial containing 450 μL of a 8.9 M aqueous H2SO4 solution, the mixture is heated to 225° C. for 25 minutes in an aluminum heat block to hydrolyze POPC and cooled for 5 minutes. 200 μL of a 30% hydrogen peroxide aqueous solution is added to each vial and heated to 225° C. for 25 minutes. After cooling, the phosphorus content was determined using an Abcam Phosphate Assay kit, with buffer subtracted phosphorus levels determined against a standard curve of phosphate included in the kit. Liposomes were diluted to 1 mM phosphate in Running Buffer for use in assays after accounting for dilutions made during phospholipid digestion.
Determination of the Iron Transporting Rate Constant of the Ligands:
Determination of the rate at which a small molecule ligand liberates (transport) Ferric iron from liposomes is performed in clear bottom black 384-well plates on a Spectramax i3x set to read the absorbance at 562 nm in the kinetic mode every 60 seconds for 120 minutes. 1 μL of serially diluted DMSO stock solution of a small molecule ligand is added to wells in triplicate to give the final concentrations of 40, 20, 10, 5, 2.5, and 1.25 uM of the ligand at 80 μL final volume, followed by addition of 1 μL of 100 mM Ferrozine in water to give a final concentration of 1 mM ferrozine. 78 μL of liposomes diluted to 1 mM phosphorus in running buffer is added to wells as quickly as possible (using a digital repeater multichannel pipette) with the kinetic read initiated as rapidly as possible after addition of liposomes to all wells. Typically, eight compounds at six concentrations are tested in triplicate simultaneously. […]

[2] = test system: DMT1-deficient Caco-2 cells; experiment: shDMT1-Caco2 55Fe transport assay; assay type: cell-based; settings: Caco-2
Description: Assay 2: shDMT1-Caco2 ^55Fe Transport Assay to Assess Ligand Ability in Transporting Fe (III)
Cells: DMT1-deficient Caco-2 cells (alias: “shDMT1,” or “4A” cells) were from Grillo et al. Science, 2017, and were cryopreserved in liquid nitrogen prior to use.
Reagents and supplies: ^55FeCl3 was obtained from PerkinElmer (Boston, MA). Iron(III) chloride (FeCl3) hexahydrate was obtained from Sigma. Dulbecco's Modified Eagle Medium (DMEM), fetal bovine serum (FBS), L-glutamine, MEM nonessential amino acids, penicillin-streptomycin, G418, formic acid, methanol, high-purity water, ammonium formate, dimethyl sulfoxide (DMSO) were purchased from Fisher Scientific. Propranolol, atenolol and carbutamide were obtained from Sigma-Aldrich Chemical Company (St Louis, MO). Scintillation cocktail was obtained from Research Product International Co. (Mount Prospect, IL). Stericup filter system (PES membrane, 0.22 um pore size) was purchased from Fisher Scientific. Corning item #3378 24-well transwell insert plates.
Test articles: known compounds hinokitiol and deferiprone were purchased from Sigma. They are tested side by side with the small molecule ligands disclosed in this application. DMSO stocks (10 mM, which is 1,000× of the 10 μM dose level) of hinokitiol or test articles were prepared. A stock solution of 25 mM deferiprone in DMSO was prepared. The DMSO stock solutions were stored at −20° C. or below when not in use.
The growth medium was prepared according to the following table
Apical media (serum free DMEM, 10 mM MES, pH 6.5) was prepared. Apical master mix media was prepared fresh with the addition of 200 nM ^55Fe before each experiment. For the negative control propranolol and atenolol wells, 200 nM of non-radioactive iron was used.
The basolateral media was serum-free DMEM, 10 mM HEPES, 2% bovine serum albumin (BSA), pH 7.4.
For each experiment, cells were seeded into the 24-well transwell plates (0.5 mL of 50,000 cells/mL) with growth media. The basolateral companion plate was loaded with 1 mL of growth media. After 12-24 hr, both the apical and basolateral chamber were replaced with growth media. The apical media was changed 3× per week for 21-28 days, including a media change exactly 48 hr before the assay date.
On the assay day, the TEER values were measured and the average TEER value was obtained. Individual wells with TEER value >35% lower than the average of all wells were excluded. For the qualified wells, the apical layer (twice) and basolaterial (once) chambers were washed with PBS. The basolateral companion plate was then filled with 1 mL of basolateral media. Via addition down the side-wall of the apical well, 300 μL per well of the apical assay master mix, with the indicated dose level of test article, was added. Each dose was tested in triplicate. The plates were incubated (5% CO2 and 90% humidity at 37° C.) for the indicated timepoints. At each indicated timepoint, the basolateral supernatant was gently mixed via pipetting, and 200 μL of the basolateral supernatant was transferred to scintillation vials. To each scintillation counting vial, 5 mL of scintillation cocktail fluid was added. For each scintillation vial, the radioactivity (CPM) was determined with liquid scintillation counter LS6500. The counting time per vial was 5 min.
All raw CPM values are divided by the average value of blank DMSO solution to give a fold of change above the DMSO value. The mean and standard deviation of each compound at each concentration level and at each time point measured was calculated to give the fold change (fc) value. For rank order compounds, the fc value of a ligand at 4 h time point is further divided by the fold change (fc) value of hinokitiol (a positive control compound) at an equimolar concentration to arrive at the FC (normalized fold of change) value. Data reported in Tables 1 and 2 is 4 hr time point FC=fc-ligand @ 3 uM/fc-hino @ 3 μM, and FC hino=1.

Mouse 6-hour PK study = settings: mouse, in vivo
Description: Useful such assays include, but are not limited to e.g., those measurements made in PK studies, such as rodent and non-human primate PK studies, including e.g., mouse (such as mouse 6-hour PK studies), rat PK studies, cynomolgus or rhesus PK studies, or the like. Useful measurements obtained in such PK studies include but are not limited to e.g., maximum concentration (Cmax) reflecting the “peak” of a drug observed after its administration that can reflect not only the rate but also the extent of absorption, area under the curve (AUC) representing the area under the plot of tissue (e.g., plasma) concentration against time after drug administration which is of particular use in estimating bioavailability of drugs and drug total clearance, half-life (t1/2) or the period of time required for the concentration or amount of drug to be reduced to exactly one-half of a given concentration or amount that indicates the persistence of the drug in its volume of distribution, and the like.
Such assessments included human and mouse liver microsomal stability assays as well as 6-hour mouse PK studies.

Compound	Liposome Fe transport kefflux at 10 μM [1]	Caco2 shDMT1 transport FC @ 3 μM, 4 h [2]	also measured
O=c1ccccc(C2CCCO2)c1O (stereo not shown)	10-25	1-5	–
COc1cccc(=O)c(O)c1	5-7.5	0.01-0.5	–
O=c1ccccc(OC2CC(F)(F)C2)c1O	7.5-10	1-5	–
CCc1cccc(Cl)c(=O)c1O	7.5-10	0.01-0.5	–
O=c1c(O)cc(C2CC2)ccc1F [drawing 209]	7.5-10	0.01-0.5	–
O=c1ccccc(C2CCOC2)c1O (stereo not shown)	<0.1	0.01-0.5	–
O=c1c(F)cccc(C2CCOCC2)c1O [drawing 211]	5-7.5	0.01-0.5	–
O=c1c(O)ccc(OC2CCC2)cc1F	10-25	0.01-0.5	–
O=c1ccc(C2CCOCC2)ccc1O	0.1-5	0.01-0.5	–
CCc1ccc(O)c(=O)c(F)c1	0.1-5	0.01-0.5	–
Cc1cccc(C)c(=O)c1O	10-25	1-5	–
O=c1ccccc([C@H]2CCCO2)c1O	7.5-10	0.1-5	–
O=c1ccccc(C2CCOCC2)c1O [drawing 183]	0.1-5	1-5	–
O=c1ccccc([C@@H]2CCCO2)c1O	7.5-10	0.1-5	–
CC(C)Oc1ccc(O)c(=O)cc1	7.5-10	0.01-0.5	–
O=c1c(O)ccccc1F	0.1-5	0.01-0.5	–
O=c1ccccc(OC2CC3(CC3)C2)c1O [drawing 259]	10-25	1-5	–
Cc1ccc(F)c(=O)c([O-])c1.[Na+]	0.1-5	0.01-0.5	–
O=c1ccc(OC2CCC2)ccc1O	10-25	1-5	–
CCc1cc(F)ccc(=O)c1O	7.5-10	1-5	–
Cc1cccc(Cl)c(=O)c1O	5-7.5	0.01-0.5	–
CC1(C)CCC(c2cccc(=O)c(O)c2)C1 (stereo not shown)	5-7.5	0.01-0.5	–
Cc1cccc(F)c(=O)c1O [drawing 207]	10-25	0.01-0.5	–
O=c1cccc(C2CC3CCC(C2)O3)cc1O (stereo not shown) [drawing 181]	7.5-10	0.01-0.5	–
Cc1ccc(C(F)(F)F)c(=O)c(O)c1	7.5-10	0.01-0.5	–
CCOc1cccc(=O)c(O)c1	5-7.5	0.5-1	–
CCc1cccc(F)c(=O)c1O	10-25	0.01-0.5	–
CCc1cccc(C)c(=O)c1O [Ex. 27, 7-ethyl-2-hydroxy-3-methylcyclohepta-2,4,6-trien-1-one]	–	–	AUC(0-t) (Mouse 6-hour PK study): 500 to 1500 ng·h/mL; Cmax (Mouse 6-hour PK study): 500 to 1500 ng/mL; half-life (Mouse 6-hour PK study): 1.25 to 4.99 h; mouse 6-hour PK properties as compared to hinokitiol (Mouse 6-hour PK study): one or more improved mouse 6-hour PK properties as compared to hinokitiol
